{"source": "patent US6329526A", "about": "“Cycloalkyl substituted imidazoles” (SmithKline Beecham Corporation, priority 1998, dated 2001)", "key": {"human PGHS-2": {"tested_on": "human PGHS-2", "assay": "PGHS-2 protein expression in LPS stimulated human monocytes", "type": "cell-based", "method": "The following assay describes a method for determining the inhibitory effects of compounds of Formula (I) on human PGHS-2 protein expression in LPS stimulated human monocytes.\nMethod: Human peripheral blood monocytes were isolated from buffy coats by centrifugation through Ficoll and Percoll gradients. Cells were seeded at 2×10^6 /well in 24 well plates and allowed to adhere for 1 hour in RPMI supplemented with 1% human AB serum, 20 mM L-glutamine, Penicillin-Streptomycin and 10 mM HEPES. Compounds were added at various concentrations and incubated at 37° C. for 10 minutes. LPS was added at 50 ng/well (to induce enzyme expression) and incubated overnight at 37° C. The supernatant was removed and cells washed once in cold PBS. The cells were lysed in 100 μl of cold lysis buffer(50 mM Tris/HCl pH 7.5, 150 mM NaCl, 1% NP40, 0.5% sodium deoxycholate, 0.1% SDS, 300 ug/ml DNAse, 0.1% TRITON X-100, 1 mM PMSF, 1 mM leupeptin, 1 mM pepstatin). The lysate was centrifuged (10,000× g for 10 min. at 4° C.) to remove debris and the soluble fraction was subjected to SDS PAGE. analysis (12% gel). Protein separated on the gel were transferred onto nitrocellulose membrane by electrophoretic means for 2 hours at 60 volts. The membrane was pretreated for one hour in PBS/0.1% Tween 20 with 5% non-fat dry milk. After washing 3 times in PBS/Tween buffer, the membrane was incubated with a 1:2000 dilution of a monospecific antiserum to PGHS-2 or a 1:1000 dilution of an antiserum to PGHs-1 in PBS/Tween with 1% BSA for one hour with continuous shaking. The membrane was washed 3× in PBS/Tween and then incubated with a 1:3000 dilution of horseradish peroxidase conjugated donkey antiserum to rabbit Ig (Amersham) in PBS/Tween with 1% BSA for one hour with continuous shaking. The membrane was then washed 3× in PBS/Tween and the ECL immunodetection system (Amersham) was used to detect the level of expression of prostaglandin endoperoxide synthases-2."}, "CSBP2": {"target": "T1, CSBP2 (Homo sapiens, UniProt Q16539)", "T1 construct": "made in house; host or cells: yeast", "T1 sequence (Q16539 whole entry)": "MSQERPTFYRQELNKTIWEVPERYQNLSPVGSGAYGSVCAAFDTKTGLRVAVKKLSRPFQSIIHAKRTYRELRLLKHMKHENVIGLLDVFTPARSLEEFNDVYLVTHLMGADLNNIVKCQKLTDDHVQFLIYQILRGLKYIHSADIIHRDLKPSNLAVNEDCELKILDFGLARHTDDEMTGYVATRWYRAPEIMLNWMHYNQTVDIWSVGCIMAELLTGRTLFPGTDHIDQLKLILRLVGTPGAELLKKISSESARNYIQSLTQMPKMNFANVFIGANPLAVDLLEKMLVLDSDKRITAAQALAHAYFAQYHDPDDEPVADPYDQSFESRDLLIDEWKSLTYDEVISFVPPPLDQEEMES", "assay": "CSBP Kinase Assay (32P transfer to EGFR-derived peptide T669)", "type": "biochemical", "method": "Compounds (5 ul from [6X] stock^(2)) are pre-incubated with the enzyme and peptide for 20 min on ice prior to starting the reactions with 32P/MgATP. Reactions are incubated at 30° C. for 10 min and stopped by adding 10 ul of 0.3 M phosphoric acid. 32P-labeled peptide is separated on phosphocellulose (Wattman, p81) filters by spotting 30 ul reaction mixture. Filters are washed 3 times with 75 mM phosphoric acid followed by 2 washes with H2 O, and counted for 32P."}, "[1]": {"tested_on": "Tumour Necrosis Factor (TNF)", "assay": "TNF production by LPS-stimulated human peripheral blood monocytes (radioimmunoassay or ELISA)", "type": "cell-based", "conditions": "LPS 100 ng/ml, 16-18 hours"}, "Interleukin-8 (IL-8)": {"tested_on": "Interleukin-8 (IL-8)", "assay": "IL-8 production by primary human umbilical cord endothelial cells (HUVEC), ELISA", "type": "cell-based", "conditions": "test compound between 1 and 10 μM", "method": "Primary human umbilical cord endothelial cells (HUVEC) (Cell Systems, […], Wash.) are maintained in culture medium supplemented with 15% fetal bovine serum and 1% CS-HBGF consisting of aFGF and heparin. The cells are then diluted 20-fold before being plated (250 μl) into gelating coated 96-well plates. Prior to use, culture medium are replaced with fresh medium (200 μl). Buffer or test compound (25 μl, at concentrations between 1 and 10 μM) is then added to each well in quadruplicate wells and the plates incubated for 6h in a humidified incubator at 37° C. in an atmosphere of 5% CO2. At the end of the incubation period, supernatant is removed and assayed for IL-8 concentration using an IL-8 ELISA kit obtained from R&D Systems (Minneapolis, Minn.). All data is presented as mean value (ng/ml) of multiple samples based on the standard curve. IC50's where appropriate are generated by non-linear regression analysis."}, "Interleukin-1 (IL-1)": {"tested_on": "Interleukin-1 (IL-1)", "assay": "IL-1 production by LPS-stimulated human peripheral blood monocytes (IL-1 bioassay or ELISA)", "type": "cell-based", "conditions": "LPS 50 ng/ml, 24 hours", "method": "The cytokine-inhibiting effects of compounds of the present invention were determined by the following in vitro assays: Interleukin -1 (IL-1) Human peripheral blood monocytes are isolated and purified from either fresh blood preparations from volunteer donors, or from blood bank buffy coats, according to the procedure of Colotta et al, J Immunol, 132, 936 (1984). These monocytes (1×10^6) are plated in 24-well plates at a concentration of 1-2 million/ml per well. The cells are allowed to adhere for 2 hours, after which time non-adherent cells are removed by gentle washing. Test compounds are then added to the cells for about 1 hour before the addition of lipopolysaccharide (50 ng/ml), and the cultures are incubated at 37° C. for an additional 24 hours. At the end of this period, culture supernatants are removed and clarified of cells and all debris. Culture supernatants are then immediately assayed for IL-1 biological activity, either by the method of Simon et al., J. Immunol. Methods, 84, 85, (1985) (based on ability of IL-1 to stimulate a Interleukin 2 producing cell line (EL-4) to secrete IL-2, in concert with A23187 ionophore) or the method of Lee et al., J. ImmunoTherapy, 6 (1), 1-12 (1990) (ELISA assay)."}}}
{"smiles": "C[S+]([O-])c1ccc(-c2nc3n(c2-c2ccncc2)CCC3)cc1", "note": "(stereo not drawn) [2-(4-Methylsulfinylphenyl)-3-(4-pyridyl)-6,7-dihydro-(5H)-pyrrolo[1,2-a]imidazole]", "values": [{"measurement": "inhibition of LPS induced PGHS-2 protein expression", "setting": "human PGHS-2; up to 10 uM", "value": "inactive"}]}
{"smiles": "O=C1CCN(c2ccccc2)N1", "note": "[phenidone]", "values": [{"measurement": "inhibition of LPS induced PGHS-2 protein expression", "setting": "human PGHS-2; up to 10 uM", "value": "inactive"}]}
{"smiles": "C[S+]([O-])c1ccc(-c2nc(-c3ccc(F)cc3)c(-c3ccncc3)[nH]2)cc1", "note": "(stereo not drawn) [4-(4-Fluorophenyl)-2-(4-methylsulfinylphenyl)-5-(4-pyridyl)imidazole]", "values": [{"measurement": "inhibition of LPS induced PGHS-2 protein expression", "setting": "human PGHS-2; LPS stimulated human monocytes, rank order potency similar to that for inhibiting cytokine production", "value": "active"}]}
{"smiles": "CCOc1nccc(-c2c(-c3ccc(F)cc3)ncn2[C@H]2CC[C@H](O)CC2)n1", "note": "[Example 9, trans-1-(4-Hydroxycyclohexyl)-4-(4-fluorophenyl)-5-[(2-ethoxy)pyrimidine-4-yl]imidazole]", "values": [{"measurement": "IC50", "setting": "CSBP2", "value": "< 50", "unit": "µM"}]}
{"smiles": "CC(Cc1ccc(O)c(O)c1)C(C)Cc1ccc(O)c(O)c1", "note": "(stereo not drawn) [NDGA]", "values": [{"measurement": "inhibition of LPS induced PGHS-2 protein expression", "setting": "human PGHS-2; up to 10 uM", "value": "inactive"}]}
{"smiles": "COc1nccc(-c2c(-c3ccc(F)cc3)ncn2[C@H]2CC[C@H](O)CC2)n1", "note": "[Example 2, trans-1-(4-Hydroxycyclohexyl)-4-(4-fluorophenyl)-5-[(2-methoxy)pyrimidin-4-yl]imidazole]", "values": [{"measurement": "inhibitory activity against TNF", "setting": "[1]", "value": "positive inhibitory activity"}, {"measurement": "inhibitory activity against IL-8", "setting": "Interleukin-8 (IL-8)", "value": "positive inhibitory activity"}, {"measurement": "inhibitory activity against IL-1", "setting": "Interleukin-1 (IL-1)", "value": "positive inhibitory activity"}]}
{"smiles": "COc1ccc(C2CNC(=O)C2)cc1OC1CCCC1", "note": "(stereo not drawn) [rolipram]", "values": [{"measurement": "inhibition of LPS induced PGHS-2 protein expression", "setting": "human PGHS-2; up to 10 uM", "value": "inactive"}]}
